US12195463B2 (priority 2018, dated 2025)

Tests used:
SERT = SERT (Homo sapiens, UniProt P31645); assay: biochemical; format: binding
D2 = D2 (Homo sapiens, UniProt P14416); conditions: qualitative statement
D1 = D1 (Homo sapiens, UniProt P21728); conditions: qualitative statement
Chain of D1 (P21728 whole entry): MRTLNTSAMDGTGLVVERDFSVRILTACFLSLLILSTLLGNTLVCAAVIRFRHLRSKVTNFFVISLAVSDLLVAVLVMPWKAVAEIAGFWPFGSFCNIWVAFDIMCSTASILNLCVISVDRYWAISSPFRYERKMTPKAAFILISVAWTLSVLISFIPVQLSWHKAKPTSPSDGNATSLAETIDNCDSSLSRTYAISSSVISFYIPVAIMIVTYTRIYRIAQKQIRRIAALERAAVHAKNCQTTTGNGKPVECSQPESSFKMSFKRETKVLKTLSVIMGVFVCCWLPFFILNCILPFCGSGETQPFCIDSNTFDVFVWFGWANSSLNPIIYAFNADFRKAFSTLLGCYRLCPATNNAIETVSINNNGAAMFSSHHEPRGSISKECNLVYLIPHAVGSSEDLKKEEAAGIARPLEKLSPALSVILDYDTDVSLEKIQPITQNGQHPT

Chain of SERT (P31645 whole entry, species assumed): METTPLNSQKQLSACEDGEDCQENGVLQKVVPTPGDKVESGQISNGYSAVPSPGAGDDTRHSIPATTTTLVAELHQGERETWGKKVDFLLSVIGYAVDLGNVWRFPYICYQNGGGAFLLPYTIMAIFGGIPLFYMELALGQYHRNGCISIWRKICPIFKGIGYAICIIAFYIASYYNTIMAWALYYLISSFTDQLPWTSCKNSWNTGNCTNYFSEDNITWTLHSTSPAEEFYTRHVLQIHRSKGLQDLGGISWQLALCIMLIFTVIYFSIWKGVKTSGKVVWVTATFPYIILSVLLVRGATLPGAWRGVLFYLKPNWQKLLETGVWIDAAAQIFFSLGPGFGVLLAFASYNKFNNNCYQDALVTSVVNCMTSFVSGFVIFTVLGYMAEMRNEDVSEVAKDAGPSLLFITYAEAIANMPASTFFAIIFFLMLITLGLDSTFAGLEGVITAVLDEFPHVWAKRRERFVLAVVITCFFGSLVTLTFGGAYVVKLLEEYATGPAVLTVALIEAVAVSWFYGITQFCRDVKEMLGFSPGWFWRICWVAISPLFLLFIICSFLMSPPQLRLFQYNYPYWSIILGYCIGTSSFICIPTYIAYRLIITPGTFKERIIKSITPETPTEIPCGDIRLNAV
Chain of D2 (P14416 1-414 isoform P14416-2): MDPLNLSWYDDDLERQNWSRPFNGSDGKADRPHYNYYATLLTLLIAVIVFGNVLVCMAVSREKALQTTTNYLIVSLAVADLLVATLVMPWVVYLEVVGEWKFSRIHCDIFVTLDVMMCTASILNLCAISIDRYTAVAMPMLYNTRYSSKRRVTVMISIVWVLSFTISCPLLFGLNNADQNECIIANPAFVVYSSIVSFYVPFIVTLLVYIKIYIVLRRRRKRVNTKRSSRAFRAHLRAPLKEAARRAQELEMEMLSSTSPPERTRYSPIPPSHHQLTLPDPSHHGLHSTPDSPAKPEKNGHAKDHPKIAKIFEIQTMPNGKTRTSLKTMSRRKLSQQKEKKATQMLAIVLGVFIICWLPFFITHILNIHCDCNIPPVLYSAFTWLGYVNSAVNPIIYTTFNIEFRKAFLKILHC

Row | SMILES | Ki (SERT; read-out: Ki (nM) or maximum inhibition) [nM] | D2 affinity, in words (D2) | D1 receptor binding, in words (D1) | SERT activity, in words (SERT; qualitative statement)
1 | O=C1CN2c3c(cccc3[C@@H]3CN(CCCOc4ccc(F)cc4)CC[C@@H]32)N1 [Compound A, reference compound] | ≤ 600 |  |  | 
2 | O=C1CN2c3c(cccc3[C@H]3CN(CCCOc4ccc(F)cc4)CC[C@H]32)N1 [Example 1, (6bS,10aR)-8-(3-(4-fluorophenoxy)propyl)-6b,7,8,9,10,10a-hexahydro-1H-pyrido[3′,4′:4,5]pyrrolo[1,2,3-de]quinoxalin-2(3H)-one] |  | weak D2 affinity | moderately strong D1 receptor binding | no SERT activity
